Among the data in US9315496B2, “Benzopyrone derivative and use thereof” (HUAZHONG UNIVERSITY OF SCIENCE & TECHNOLOGY, priority 2011, dated 2016) are inhibition and melting point values, retold here.

Data set [1] concerns the target dopamine D2 receptor (Rattus norvegicus, UniProt P61169). The experiment in a line: D2 receptor binding assay (3H-Spiperone, rat brain striatum membrane). Particulars: read-out: D2 inhibition %.
Description: Rats were sacrificed by cervical dislocation on ice. Brain striatum was rapidly taken, and 2 brain striatums were combined into a centrifuge tube, to which 3 ml of buffer (0.05 M Tris-HCl buffer, containing NaCl 120 mM, KCl 5 mM, MgCl2 1 mM, CaCl2 1 mM) was added, homogenization was conducted for 3-4 s at level 4 for four times, and then 5 ml of buffer was then added. The weight of the homogenized tubes were adjusted using a balance, and centrifugation was conducted at 12000 r, 4° C. for 20 min. The supernatant was discarded, and 3 ml of buffer was added (0.05 M Tris-HCl buffer, containing NaCl 120 mM, KCl 5 mM, MgCl2 1 mM, CaCl2 1 mM). Vortex mixer was used for blending, and then 5 ml of buffer was added (0.05 M Tris-HCl buffer, containing NaCl 120 mM, KCl 5 mM, MgCl2 1 mM, CaCl2 1 mM). Centrifugation was conducted (repeated 3 times). After the centrifugations, the supernatant was discarded, and the pellets were stored at −80° C. for future use.
Beckman LS-6500 Multi-function Liquid Scintillation Counter was used.
(1) The prepared membrane was first applied with appropriate amount of homogenized liquid, and homogenizer was used for evenly dispersing. 15 tubes were mixed into a 100 ml container, and appropriate amount of homogenized liquid was added to give 50 ml of membrane suspension, which was reserved for future use.
(2) 100 μL of membrane preparation and 100 μL of buffer were added into each reaction tube.
(3) 100 μL of homogenized liquid was added into the total binding tube (TB), 100 μL of Butaclamol (final concentration 10^−5 M) was added into the non-specific binding tube (NB), and 100 μL of the test compound (final concentration 10^−5 M) was added into the specific binding tube (SB) for each compound.
(5) Each of the reaction tubes was incubated at 37° C. for 20 min. After the reaction was completed, the bound ligands were rapidly filtered under reduced pressure, and the ice-chilled assay buffer was used for adequate washing. The filter was taken out and put into a 3 ml scintillation vial, and 2 ml of toluene scintillation solution was added and blended.
(6) The scintillation vials were put into Liquid Scintillation Counter for counting. Inhibitory rate(1%)=(Total binding tube cpm−compound cpm)/(Total binding tube cpm−non-specific binding tube cpm)×100%
Each assay for the compounds was conducted in duplicate.
Data set [2] deals with 5-HT2A receptor (Rattus norvegicus, UniProt P14842). The experiment in a line: 5HT2A receptor binding assay ([3H]-Ketanserin, rat brain striatum membrane). Particulars: read-out: 5HT2A inhibition %.
Chain of 5-HT2A receptor (P14842 whole entry): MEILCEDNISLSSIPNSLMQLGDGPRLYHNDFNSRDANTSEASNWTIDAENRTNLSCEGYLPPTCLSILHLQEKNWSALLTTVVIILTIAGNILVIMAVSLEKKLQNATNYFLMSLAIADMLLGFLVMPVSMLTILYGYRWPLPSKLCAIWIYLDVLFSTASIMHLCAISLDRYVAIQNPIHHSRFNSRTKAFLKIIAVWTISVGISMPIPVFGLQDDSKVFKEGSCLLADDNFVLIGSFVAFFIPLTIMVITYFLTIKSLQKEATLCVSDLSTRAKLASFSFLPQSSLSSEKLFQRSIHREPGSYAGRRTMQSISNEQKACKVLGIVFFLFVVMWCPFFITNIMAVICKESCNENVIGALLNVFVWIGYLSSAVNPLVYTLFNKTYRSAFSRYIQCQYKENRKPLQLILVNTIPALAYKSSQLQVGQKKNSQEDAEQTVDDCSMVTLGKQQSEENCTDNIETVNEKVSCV
Data set [3] concerns the target T1, 5-HT1A receptor (Rattus norvegicus, UniProt P19327).
T1 sequence (P19327 1-422): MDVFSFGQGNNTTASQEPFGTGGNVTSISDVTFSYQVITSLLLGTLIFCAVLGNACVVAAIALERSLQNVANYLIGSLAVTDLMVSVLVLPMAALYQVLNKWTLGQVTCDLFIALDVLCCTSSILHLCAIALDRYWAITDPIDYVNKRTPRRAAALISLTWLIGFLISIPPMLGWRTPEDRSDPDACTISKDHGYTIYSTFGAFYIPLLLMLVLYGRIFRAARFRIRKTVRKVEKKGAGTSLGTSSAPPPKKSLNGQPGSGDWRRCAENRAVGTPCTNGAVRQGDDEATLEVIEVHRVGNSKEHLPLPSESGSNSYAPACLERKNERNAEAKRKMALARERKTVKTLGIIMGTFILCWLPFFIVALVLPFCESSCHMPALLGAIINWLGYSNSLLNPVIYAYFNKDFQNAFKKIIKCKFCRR
The experiment in a line: 5HT1A receptor binding assay (3H-8-OH-DPAT, rat brain striatum membrane). The settings on record: test compound final concentration 10^−5 M; 3H-8-OH-DPAT; rat brain striatum membrane. As to the method: Incubation at 37° C. was conducted for 10 min, the weight of the tubes were adjusted using a balance after incubation. […] Centrifugation was conducted and repeated 3 times.

The mark [4] stands for this setting: test compound final concentration 10^−5 M, [3H]-Ketanserin, rat brain striatum membrane.

Counter-ions that a name gives are not always drawn. Like-named read-outs stand apart in the source and are kept apart here.

Chain of dopamine D2 receptor (P61169 whole entry): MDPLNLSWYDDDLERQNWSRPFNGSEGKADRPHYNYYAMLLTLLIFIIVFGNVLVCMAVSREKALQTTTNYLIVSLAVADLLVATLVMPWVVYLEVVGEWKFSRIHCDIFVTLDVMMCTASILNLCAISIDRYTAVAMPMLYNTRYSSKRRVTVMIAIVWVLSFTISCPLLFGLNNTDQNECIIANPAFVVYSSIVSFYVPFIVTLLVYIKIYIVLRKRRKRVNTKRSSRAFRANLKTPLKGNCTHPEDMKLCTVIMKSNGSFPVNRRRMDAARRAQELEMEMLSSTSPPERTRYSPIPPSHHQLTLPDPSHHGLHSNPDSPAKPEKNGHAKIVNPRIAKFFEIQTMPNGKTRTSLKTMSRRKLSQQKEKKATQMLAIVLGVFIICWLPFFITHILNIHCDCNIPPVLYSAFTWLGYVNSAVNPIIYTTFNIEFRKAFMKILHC

On to `O=c1cc(-c2ccccc2)c2ccc(OCCCCN3CCC(c4noc5cc(F)ccc45)CC3)cc2o1` [Compound 13, 7-(4-(4-(3-(6-fluoro-benzisoxazole)-1-piperidyl)-n-butoxy))-4-phenyl-2H-benzopyran-2-one], for which the results for the inhibition at 10 µM in data set [1], in data set [2] and in data set [3] were 65.2%, 67.2% and 111%, respectively.

The compound `O=c1cc(CO)c2ccc(OCCCN3CCC(c4noc5cc(F)ccc45)CC3)cc2o1` [Compound 30, 7-(3-(4-(3-(6-fluoro-benzisoxazole)-1-piperidyl)-n-propoxy))-4-hydroxymethyl-2H-benzopyran-2-one] returned a melting point of 144 to 146 °C. For the same compound, the inhibition at 10 µM in data set [1] was 20.3%. For the same compound, in data set [2] (setting [4]), the inhibition at 10 µM was found to be 98.5%. Moreover, the inhibition at 10 µM in data set [3] is 82.8%.

In turn, `CCc1cc(=O)oc2cc(OCCCCN3CCN(c4nsc5ccccc45)CC3)ccc12` [Compound 28, 7-(4-(4-(3-(1,2-benzisothiazole)-1-piperazinyl)-n-butoxy))-4-ethyl-2H-benzopyran-2-one] had a melting point of 110 to 112 °C. The inhibition at 10 µM in data set [1] was found to be 58.8%. Moreover, in data set [2] (setting [4]), the inhibition at 10 µM came out at 56.1%. Besides, the inhibition at 10 µM in data set [3] was determined as 11%.

`CCc1cc(=O)oc2cc(OCCCCN3CCC(c4noc5cc(F)ccc45)CC3)ccc12` [Compound 27, 7-(4-(4-(3-(6-fluoro-benzisoxazole)-1-piperidyl)-n-butoxy))-4-ethyl-2H-benzopyran-2-one]: the inhibition at 10 µM was 84% in data set [1], 124% in data set [2] (setting [4]) and 65.7% in data set [3].

As to `O=c1ccc2ccc(OCCCCN3CCN(c4nsc5ccccc45)CC3)cc2o1` [Compound 2, 7-(4-(4-(3-(1,2-benzisothiazole)-1-piperazinyl)-n-butoxy))-2H-benzopyran-2-one], the figures for the inhibition at 10 µM in data set [1], in data set [2] (setting [4]) and in data set [3] were 80.6%, 103% and 99.4%, respectively.

In turn, `O=c1cc(C(F)(F)F)c2ccc(OCCCCN3CCC(c4noc5cc(F)ccc45)CC3)cc2o1` [Compound 17, 7-(4-(4-(3-(6-fluoro-benzisoxazole)-1-piperidyl)-n-butoxy))-4-(trifluoromethyl)-2H-benzopyran-2-one] came in with a melting point of 125 to 127 °C. Also, in data set [1], the inhibition at 10 µM amounted to 92.3%. Besides, the inhibition at 10 µM in data set [2] (setting [4]) turned out to be 95.9%. For the same compound, in data set [3], the inhibition at 10 µM came out at 101%.

In turn, `O=c1ccc2ccc(OCCCCN3CCN(c4nsc5ccccc45)CC3)cc2o1` (as salt: hydrochloride) [Compound 2, 7-(4-(4-(3-(1,2-benzisothiazole)-1-piperazinyl)-n-butoxy))-2H-benzopyran-2-one] gave a melting point of 103 to 105 °C.

`O=c1cc(-c2ccccc2)c2ccc(OCC(O)CN3CCC(c4noc5cc(F)ccc45)CC3)cc2o1` (centres unmarked) [Compound 33, 7-(3-(4-(3-(6-fluoro-benzisoxazole)-1-piperidyl)-2-hydroxylpropoxy))-4-phenyl-2H-benzopyran-2-one] registered a melting point of 193 to 195 °C. In addition, in data set [1], the inhibition at 10 µM is 110%. For the same compound, the inhibition at 10 µM in data set [2] (setting [4]) was 129%. For the same compound, the inhibition at 10 µM in data set [3] turned out to be 23.5%.

`O=c1cc(-c2ccccc2)c2ccc(OCCCCN3CCN(c4nsc5ccccc45)CC3)cc2o1` [Compound 14, 7-(4-(4-(3-(1,2-benzisothiazole)-1-piperazinyl)-n-butoxy))-4-phenyl-2H-benzopyran-2-one] returned a melting point of 116 to 118 °C. Further, the inhibition at 10 µM in data set [1] is 68.6%. Moreover, the inhibition at 10 µM in data set [2] (setting [4]) was determined as 83.4%. Further, the inhibition at 10 µM in data set [3] is 95.5%.

As to `Cc1c(C)c2ccc(OCCCCN3CCC(c4noc5cc(F)ccc45)CC3)cc2oc1=O` [Compound 29, 7-(4-(4-(3-(6-fluoro-benzisoxazole)-1-piperidyl)-n-butoxy))-3,4-dimethyl-2H-benzopyran-2-one], the melting point lay in the range of 106 to 108 °C. Moreover, the inhibition at 10 µM in data set [1] is 43.2%. Further, in data set [2] (setting [4]), the inhibition at 10 µM was found to be 24.7%. Besides, the inhibition at 10 µM in data set [3] turned out to be 97.1%.

Compound `Cc1cc(=O)oc2cc(OCC(O)CN3CCC(c4noc5cc(F)ccc45)CC3)ccc12` (centres unmarked) [Compound 32, 7-(3-(4-(3-(6-fluoro-benzisoxazole)-1-piperidyl)-2-hydroxylpropoxy))-4-methyl-2H-benzopyran-2-one] registered a melting point of 183 to 185 °C. Besides, in data set [1], the inhibition at 10 µM amounted to 62.6%. In data set [2] (setting [4]), the inhibition at 10 µM stood at 157%. Moreover, in data set [3], the inhibition at 10 µM worked out at 103%.

Regarding `O=c1ccc2ccc(OCCCN3CCN(c4nsc5ccccc45)CC3)cc2o1` [Compound 4, 7-(3-(4-(3-(1,2-benzisothiazole)-1-piperazinyl)-n-propoxy))-2H-benzopyran-2-one], the melting point is 91 to 93 °C. The inhibition at 10 µM in data set [1] stood at 49.2%. For the same compound, the inhibition at 10 µM in data set [2] (setting [4]) is 59.1%. Also, in data set [3], the inhibition at 10 µM stood at 101%.

With `O=C1CC(c2ccccc2)c2ccc(OCCCCN3CCC(c4noc5cc(F)ccc45)CC3)cc2O1` (centres unmarked) [Compound 34], the inhibition at 10 µM amounted to 120% in data set [1], 115% in data set [2] (setting [4]) and 5.9% in data set [3].

As for `CCCc1cc(=O)oc2cc(OCCCCN3CCC(c4noc5cc(F)ccc45)CC3)ccc12` [Compound 25, 7-(4-(4-(3-(6-fluoro-benzisoxazole)-1-piperidyl)-n-butoxy))-4-n-propyl-2H-benzopyran-2-one], the melting point was in the range of 139 to 141 °C. Moreover, the inhibition at 10 µM in data set [1] was 70.7%. Moreover, the inhibition at 10 µM in data set [2] (setting [4]) worked out at 40.2%. For the same compound, the inhibition at 10 µM in data set [3] came to 84.5%.

`Cc1cc(=O)oc2cc(OCCCCN3CCN(c4nsc5ccccc45)CC3)ccc12` [Compound 5, 7-(4-(4-(3-(1,2-benzisothiazole)-1-piperazinyl)-n-butoxy))-4-methyl-2H-benzopyran-2-one]: the melting point was 110 to 112 °C. Also, the inhibition at 10 µM in data set [1] amounted to 88.5%. The inhibition at 10 µM in data set [2] (setting [4]) came to 104%. The inhibition at 10 µM in data set [3] is 114%.

The compound `Cc1cc(=O)oc2c(C)c(OCCCCN3CCN(c4nsc5ccccc45)CC3)ccc12` [Compound 24, 7-(4-(4-(3-(1,2-benzisothiazole)-1-piperazinyl)-n-butoxy))-4-8-dimethyl-2H-benzopyran-2-one] returned a melting point of 106 to 108 °C. For the same compound, the inhibition at 10 µM in data set [1] amounted to 98.1%. In addition, the inhibition at 10 µM in data set [2] (setting [4]) is 97.4%. Moreover, the inhibition at 10 µM in data set [3] stood at 105%.

As to `CCCc1cc(=O)oc2cc(OCCCCN3CCN(c4nsc5ccccc45)CC3)ccc12` [Compound 26, 7-(4-(4-(3-(1,2-benzisothiazole)-1-piperazinyl)-n-butoxy))-4-n-propyl-2H-benzopyran-2-one], the inhibition at 10 µM in data set [1] was 61.9%; in data set [2] (setting [4]), 129%; in data set [3] it was 99.7%.

`Cc1cc(=O)oc2cc(OCCCN3CCN(c4nsc5ccccc45)CC3)ccc12` [Compound 8, 7-(3-(4-(3-(1,2-benzisothiazole)-1-piperazinyl)-n-propoxy))-4-methyl-2H-benzopyran-2-one] had a melting point of 113 to 115 °C. In addition, the inhibition at 10 µM in data set [1] amounted to 73.8%. The inhibition at 10 µM in data set [2] (setting [4]) was 88.6%. Also, in data set [3], the inhibition at 10 µM was 98.5%.

For the compound `O=c1cc(CO)c2ccc(OCCCCN3CCC(c4noc5cc(F)ccc45)CC3)cc2o1` [Compound 31, 7-(4-(4-(3-(6-fluoro-benzisoxazole)-1-piperidyl)-n-butoxy))-4-hydroxymethyl-2H-benzopyran-2-one], the melting point lay in the range of 160 to 162 °C. Further, the inhibition at 10 µM in data set [1] turned out to be 2.4%. Also, the inhibition at 10 µM in data set [2] (setting [4]) came to 1.8%. In addition, the inhibition at 10 µM in data set [3] stood at 63.9%.

On to `O=c1cc(C(F)(F)F)c2ccc(OCCCN3CCN(c4nsc5ccccc45)CC3)cc2o1` (as salt: hydrochloride) [Compound 16, 7-(3-(4-(3-(1,2-benzisothiazole)-1-piperazinyl)-n-propoxy))-4-(trifluoromethyl)-2H-benzopyran-2-one], for which the melting point was 103 to 105 °C.

Take `O=c1cc(C(F)(F)F)c2ccc(OCCCN3CCC(c4noc5cc(F)ccc45)CC3)cc2o1` [Compound 15, 7-(3-(4-(3-(6-fluoro-benzisoxazole)-1-piperidyl)-n-propoxy))-4-(trifluoromethyl)-2H-benzopyran-2-one]: the melting point lay in the range of 146 to 148 °C. Further, the inhibition at 10 µM in data set [1] turned out to be 94.6%. The inhibition at 10 µM in data set [2] (setting [4]) came out at 83.3%. In addition, in data set [3], the inhibition at 10 µM turned out to be 107%.

Consider `O=c1cc(C(F)(F)F)c2ccc(OCCCN3CCN(c4nsc5ccccc45)CC3)cc2o1` [Compound 16, 7-(3-(4-(3-(1,2-benzisothiazole)-1-piperazinyl)-n-propoxy))-4-(trifluoromethyl)-2H-benzopyran-2-one], for which the inhibition at 10 µM in data set [1] is 115%; in data set [2] (setting [4]) it was 96.3%; in data set [3], 104%.

Take `O=c1cc(-c2ccccc2)c2ccc(OCCCN3CCN(c4nsc5ccccc45)CC3)cc2o1` (as salt: hydrochloride) [Compound 12, 7-(3-(4-(3-(1,2-benzisothiazole)-1-piperazinyl)-n-propoxy))-4-phenyl-2H-benzopyran-2-one]: the melting point lay in the range of 96 to 98 °C.
